Assay results: publication PMC11284788, “NN1213 – A Potent, Long-Acting, and Selective Analog of Human Amylin” (Journal of Medicinal Chemistry, 2024)
In brackets after ≈: the same amount, converted by molar mass. Numbered stars: 1 amine (or outer) side, 2 acyl side, 3 side chain; on linkers, the order of the positions; unused ones are H or OH. Bridge positions count the residues as written; N and C are the ends. Side chains are listed from the residue outwards. Peptide text beside a SMILES is read from it. * marks the point of attachment. C20 diacid = O=C(O)CCCCCCCCCCCCCCCCCCC(=O)*; γGlu = O=C(O)[C@H](CCC(=O)[*:2])N[*:1]; AEEA = NCCOCCOCC(=O)O

Experiments:
[1] = Solubility versus pH profile
[2] = ThT assay: fibril formation propensity and peptide recovery; type: physicochemical; conditions: for ThT, pH 4.0 lag-time / ThT, pH 7.5 lag-time: 250 μM peptide, 37 °C, 960 rpm, 45 h, lowest of four replicas, average of experiments; for ThT, pH 4.0 lag-time: 10 mM glycylglycine pH 4.0, 1 μM ThT; for recovery: residual dissolved peptide after 45 h of shaking, centrifugation and 0.22 μm filtration, HPLC, relative to amount before stress; for ThT, pH 7.5 lag-time: 10 mM HEPES pH 7.5, 1 μM ThT
How it was run: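 Fibrillation lag time is read visually from ThT fluorescence-time curves (444/485 nm, 20-min reads, 45 h, 37 °C, 960 rpm shaking) of 250 μM peptide with 1 μM ThT at pH 4.0 or 7.5. The most conservative of four replicates is used. Peptide recovery is post-stress soluble peptide (HPLC, 215/276 nm) as fraction of initial.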

[3] = HMWP content by size-exclusion chromatography; type: physicochemical; conditions: covalent dimers and polymers prior to fibril formation testing, SEC, % of total absorbance area at 215 nm
How it was run: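 HMWP percentage is the covalent dimer/polymer peak area relative to total absorbance area, with extinction coefficients taken as equal to the main peak. Isocratic size-exclusion elution used 50% (v/v) 2-propanol containing 0.5 M NaCl and phosphate buffer; measured on analogs prior to fibril assays.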

[4] = bis-tris-propane buffer, pH 6, aqueous buffer
[5] = bis-tris-propane buffer, pH 6.5, aqueous buffer
[6] = bis-tris-propane buffer, pH 7, aqueous buffer
[7] = bis-tris-propane buffer, pH 7.5, aqueous buffer
[8] = bis-tris-propane buffer, pH 8, aqueous buffer
[9] = lactate buffer, pH 4, aqueous buffer
[10] = lactate buffer, pH 5, aqueous buffer

Row | Structure (SMILES) | solubility kinetic [1, 4] [µM] | solubility kinetic [1, 5] [µM] | solubility kinetic [1, 6] [µM] | solubility kinetic [1, 7] [µM] | solubility kinetic [1, 8] [µM] | solubility kinetic [1, 9] [µM] | solubility kinetic [1, 10] [µM] | ThT, pH 4.0 lag-time ([2]; listed as 21) [h] | recovery ([2]; pH 4.0) [%] | HMWP ([3]; analogs 10–21 (pH 4.0 series)) [%] | ThT, pH 7.5 lag-time [2] [h] | recovery ([2]; pH 7.5) [%] | HMWP ([3]; analogs 1–9 (pH 7.5 series)) [%] | ThT, pH 4.0 lag-time [2] [h]
1 | CC[C@H](C)[C@H](NC(=O)[C@H](C)NC(=O)CNC(=O)[C@H](Cc1ccccc1)NC(=O)[C@H](CC(N)=O)NC(=O)[C@@H]1CCCN1C(=O)[C@H](CO)NC(=O)[C@H](CO)NC(=O)[C@H](Cc1c[nH]cn1)NC(=O)[C@H](CCCNC(=N)N)NC(=O)[C@H](CC(C)C)NC(=O)[C@H](Cc1ccccc1)NC(=O)[C@H](CC(=O)O)NC(=O)[C@H](C)NC(=O)[C@H](CC(C)C)NC(=O)[C@H](CCCNC(=N)N)NC(=O)[C@H](CCC(N)=O)NC(=O)[C@@H](NC(=O)[C@H](C)NC(=O)[C@@H]1CSSC[C@H](NC(=O)[C@@H](N)CCCCNC(=O)CC[C@H](NC(=O)CC[C@H](NC(=O)CCCCCCCCCCCCCCCCCCC(=O)O)C(=O)O)C(=O)O)C(=O)N[C@@H](CC(N)=O)C(=O)N[C@@H]([C@@H](C)O)C(=O)N[C@@H](C)C(=O)N[C@@H]([C@@H](C)O)C(=O)N1)[C@@H](C)O)C(=O)N1CCC[C@H]1C(=O)N[C@@H](CO)C(=O)N[C@@H](CO)C(=O)N[C@H](C(=O)N[C@@H](CC(N)=O)C(=O)N[C@H](C(=O)NCC(=O)N[C@@H](CO)C(=O)N[C@@H](CCCNC(=N)N)C(=O)N[C@H](C(=O)N[C@@H](Cc1ccc(O)cc1)C(N)=O)[C@@H](C)O)C(C)C)[C@@H](C)O [NN1213] | ≥ 200 | ≥ 200 | 155 (≈ 706 µg/mL) | 106 (≈ 483 µg/mL) | 110 (≈ 501 µg/mL) | ≥ 200 | ≥ 200 | 42 | 96 | 0.9 |  |  |  | 
2 | CC[C@H](C)[C@H](NC(=O)[C@H](C)NC(=O)CNC(=O)[C@H](Cc1ccccc1)NC(=O)[C@H](CC(N)=O)NC(=O)[C@@H]1CCCN1C(=O)[C@H](CO)NC(=O)[C@H](CO)NC(=O)[C@H](Cc1c[nH]cn1)NC(=O)[C@H](CCCNC(=N)N)NC(=O)[C@H](CC(C)C)NC(=O)[C@H](Cc1ccccc1)NC(=O)[C@H](CC(=O)O)NC(=O)[C@H](C)NC(=O)[C@H](CC(C)C)NC(=O)[C@H](CCCNC(=N)N)NC(=O)[C@H](CCC(N)=O)NC(=O)[C@@H](NC(=O)[C@H](C)NC(=O)[C@@H]1CSSC[C@H](NC(=O)[C@@H](N)CCCCNC(=O)CC[C@H](NC(=O)CC[C@H](NC(=O)CCCCCCCCCCCCCCCCCCC(=O)O)C(=O)O)C(=O)O)C(=O)N[C@@H](CC(N)=O)C(=O)N[C@@H]([C@@H](C)O)C(=O)N[C@@H](C)C(=O)N[C@@H]([C@@H](C)O)C(=O)N1)[C@@H](C)O)C(=O)N1CCC[C@H]1C(=O)N[C@@H](CO)C(=O)N[C@@H](CO)C(=O)N[C@H](C(=O)N[C@@H](CC(N)=O)C(=O)N[C@H](C(=O)NCC(=O)N[C@@H](CO)C(=O)N[C@@H](CC(=O)O)C(=O)N[C@H](C(=O)N[C@@H](Cc1ccc(O)cc1)C(N)=O)[C@@H](C)O)C(C)C)[C@@H](C)O [Peptide 6] (H-K([γGlu-γGlu-C20 diacid])CNTATCATQRLADFLRHSSPNFGAIPSSTNVGSDTY-NH2; disulfide 2-7) | ≥ 200 | 190 (≈ 857 µg/mL) | ≥ 200 | ≥ 200 | ≥ 200 | ≥ 200 | ≥ 200 |  |  |  | >45 | 100 | 2.5 | 
3 | CC(C)C[C@H](NC(=O)[C@H](CCCNC(=N)N)NC(=O)[C@H](CCC(N)=O)NC(=O)[C@@H](NC(=O)[C@H](C)NC(=O)[C@@H]1CSSC[C@H](NC(=O)[C@@H](N)CCCCNC(=O)CC[C@H](NC(=O)CC[C@H](NC(=O)CCCCCCCCCCCCCCCCCCC(=O)O)C(=O)O)C(=O)O)C(=O)N[C@@H](CC(N)=O)C(=O)N[C@@H]([C@@H](C)O)C(=O)N[C@@H](C)C(=O)N[C@@H]([C@@H](C)O)C(=O)N1)[C@@H](C)O)C(=O)N[C@@H](C)C(=O)N[C@@H](CC(=O)O)C(=O)N[C@@H](Cc1ccccc1)C(=O)N[C@@H](CC(C)C)C(=O)N[C@@H](CCCNC(=N)N)C(=O)N[C@@H](Cc1c[nH]cn1)C(=O)N[C@@H](CO)C(=O)N[C@@H](CO)C(=O)N[C@@H](CC(N)=O)C(=O)N1CCC[C@H]1C(=O)N[C@@H](Cc1ccccc1)C(=O)NCC(=O)N[C@@H](C)C(=O)N1CCC[C@H]1C(=O)N[C@@H](CC(C)C)C(=O)N[C@@H](CO)C(=O)N[C@@H](CO)C(=O)N[C@H](C(=O)N[C@@H](CC(N)=O)C(=O)N[C@H](C(=O)NCC(=O)N[C@@H](CO)C(=O)N[C@@H](CC(=O)O)C(=O)N[C@H](C(=O)N[C@@H](Cc1ccc(O)cc1)C(N)=O)[C@@H](C)O)C(C)C)[C@@H](C)O [Peptide 7] (H-K([γGlu-γGlu-C20 diacid])CNTATCATQRLADFLRHSSNPFGAPLSSTNVGSDTY-NH2; disulfide 2-7) | 189 (≈ 853 µg/mL) | ≥ 200 | 195 (≈ 880 µg/mL) | ≥ 200 | ≥ 200 | 96 (≈ 433 µg/mL) | 141 (≈ 636 µg/mL) |  |  |  | >45 | 100 | 3 | 
4 | CC[C@H](C)[C@H](NC(=O)[C@H](C)NC(=O)CNC(=O)[C@H](Cc1ccccc1)NC(=O)[C@H](CC(N)=O)NC(=O)[C@@H]1CCCN1C(=O)[C@H](CO)NC(=O)[C@H](CO)NC(=O)[C@H](Cc1c[nH]cn1)NC(=O)[C@H](CCCNC(=N)N)NC(=O)[C@H](CC(C)C)NC(=O)[C@H](Cc1ccccc1)NC(=O)[C@H](CC(N)=O)NC(=O)[C@H](C)NC(=O)[C@H](CC(C)C)NC(=O)[C@H](CCCNC(=N)N)NC(=O)[C@H](CCC(N)=O)NC(=O)[C@@H](NC(=O)[C@H](C)NC(=O)[C@@H]1CSSC[C@H](NC(=O)[C@H](CCCCN)NC(=O)COCCOCCNC(=O)CC[C@H](NC(=O)CCCCCCCCCCCCCCCCCCC(=O)O)C(=O)O)C(=O)N[C@@H](CC(N)=O)C(=O)N[C@@H]([C@@H](C)O)C(=O)N[C@@H](C)C(=O)N[C@@H]([C@@H](C)O)C(=O)N1)[C@@H](C)O)C(=O)N1CCC[C@H]1C(=O)N[C@@H](CO)C(=O)N[C@@H](CO)C(=O)N[C@H](C(=O)N[C@@H](CC(N)=O)C(=O)N[C@H](C(=O)NCC(=O)N[C@@H](CO)C(=O)N[C@@H](Cc1c[nH]cn1)C(=O)N[C@H](C(=O)N[C@@H](Cc1ccc(O)cc1)C(N)=O)[C@@H](C)O)C(C)C)[C@@H](C)O [Peptide 18] ({C20 diacid-γGlu-AEEA}-KCNTATCATQRLANFLRHSSPNFGAIPSSTNVGSHTY-NH2; disulfide 2-7; N-terminus assumed) | ≥ 200 | ≥ 200 | ≥ 200 | ≥ 200 | ≥ 200 | ≥ 200 | ≥ 200 |  | 30 | 3.5 |  |  |  | 15
5 | CC[C@H](C)[C@H](NC(=O)[C@H](C)NC(=O)CNC(=O)[C@H](Cc1ccccc1)NC(=O)[C@H](CC(N)=O)NC(=O)[C@@H]1CCCN1C(=O)[C@H](CO)NC(=O)[C@H](CO)NC(=O)[C@H](Cc1c[nH]cn1)NC(=O)[C@H](CCCNC(=N)N)NC(=O)[C@H](CC(C)C)NC(=O)[C@H](Cc1ccccc1)NC(=O)[C@H](CCC(=O)O)NC(=O)[C@H](C)NC(=O)[C@H](CC(C)C)NC(=O)[C@H](CCCNC(=N)N)NC(=O)[C@H](CCC(N)=O)NC(=O)[C@@H](NC(=O)[C@H](C)NC(=O)[C@@H]1CSSC[C@H](NC(=O)[C@@H](N)CCCCNC(=O)CC[C@H](NC(=O)CCCCCCCCCCCCCCCCCCC(=O)O)C(=O)O)C(=O)N[C@@H](CC(N)=O)C(=O)N[C@@H]([C@@H](C)O)C(=O)N[C@@H](C)C(=O)N[C@@H]([C@@H](C)O)C(=O)N1)[C@@H](C)O)C(=O)N1CCC[C@H]1C(=O)N[C@@H](CO)C(=O)N[C@@H](CO)C(=O)N[C@H](C(=O)N[C@@H](CC(N)=O)C(=O)N[C@H](C(=O)NCC(=O)N[C@@H](CO)C(=O)N[C@@H](CCCNC(=N)N)C(=O)N[C@H](C(=O)N[C@@H](Cc1ccc(O)cc1)C(N)=O)[C@@H](C)O)C(C)C)[C@@H](C)O [Peptide 20] (H-K([γGlu-C20 diacid])CNTATCATQRLAEFLRHSSPNFGAIPSSTNVGSRTY-NH2; disulfide 2-7) | ≥ 200 | ≥ 200 | ≥ 200 | 183 (≈ 812 µg/mL) | 109 (≈ 484 µg/mL) | ≥ 200 | ≥ 200 |  | 91 | 4.9 |  |  |  | 7
